Results published in paper PMC11938014, “Development and Application of Small Molecule–Peptide Conjugates as Cathepsin K-Specific Covalent Irreversible Inhibitors in Human Osteoclast and Lung Cancer” (JACS Au, 2025).

Key:
Type in all cases: cell-based
[1] = tested on: human osteoclasts; experiment: Bone resorption assay, pit formation on bone slices (toluidine blue); conditions: Osteoclast, compared to vehicle-treated OC
Description: The selective blockage of cellular CTSK activity allowed us to assess the effect of the inhibitors on bone resorption induced by osteoclasts (OCs) as an important step toward therapeutic application in osteoporosis, bone metastases, and other diseases associated with excessive bone resorption. Human OCs were derived from CD14+ monocytes that were extracted from healthy donors’ blood and treated with M-CSF and RANKL, as described in Abdallah et al.[46] The OC were grown on cortical bone slices over 14 days in the presence of the CTSK inhibitors to evaluate the impact of inhibitors on bone resorption; see scheme (Figure 6a).
Figure 6 CTSK inhibition in human osteoclasts. (a) Scheme of the process of maturation of osteoclasts (OCs) derived from human monocytes in the presence of RANKL and M-CSF. […] (c) Quantitative analysis of pit formation in bone slices after incubation with OC treated with GD20 or ODN (1, 5 μM) relative to vehicle treated slices. […] (e) Quantification of osteoclasts number on bone slices after inhibitor treatment, detected by TRAP staining. […] The activity of CTSK in the cells was detected by 2 h labeling with a pan-cathepsin activity-based probe, GB123, followed by a fluorescence scan of the SDS-PAGE detecting CTSK attached to the probe; the red arrow points to the bands of CTSK (above 25 kDa). […]

[2] = tested on: human osteoclasts; experiment: TRAP staining, osteoclast number on bone slices; conditions: inhibitor 1 or 5 μM
Description: Figure 6 CTSK inhibition in human osteoclasts. (a) Scheme of the process of maturation of osteoclasts (OCs) derived from human monocytes in the presence of RANKL and M-CSF. (b) Representative pictures of bone resorption after incubation with human OCs treated with vehicle or inhibitors for 10–14 days. Bone resorption was observed by a toluidine blue stain. Increased staining indicates a higher number of resorption pits and greater bone resorption. (c) Quantitative analysis of pit formation in bone slices after incubation with OC treated with GD20 or ODN (1, 5 μM) relative to vehicle treated slices. […] (e) Quantification of osteoclasts number on bone slices after inhibitor treatment, detected by TRAP staining. […] The activity of CTSK in the cells was detected by 2 h labeling with a pan-cathepsin activity-based probe, GB123, followed by a fluorescence scan of the SDS-PAGE detecting CTSK attached to the probe; the red arrow points to the bands of CTSK (above 25 kDa). […]
Blood was taken in an aseptic nontouch technique from consented human volunteers that were bled from the median cubital vein using a 21G needle, by the Declaration of Helsinki. […] The whole bone slice was analyzed by generating a panoramic view of the slice using stitching of images taken with an 20× magnification. […] And again, bone slice slices were imaged as was described before and counted using ImageJ software. […]

[3] = tested on: human osteoclasts; experiment: Cell viability assay (methylene blue); conditions: different concentrations, 48 h
Description: […]
Cell viability assay: U2-OS, U-87 MG, or enriched monocyte cells were grown at 37 0C with 5% of CO2 in the respective medium as described previously. Cells were seeded (1500 cells/well in 96 wells plate) one day before the incubation with indicated inhibitor s at various concentrations. After 48 h, cells were fixed, and viability was measured by quantita tive colorimetric assay using methylene blue according to the procedure reported by Ben -Bassat et al.9 The data were expressed as a percentage of control; data represent the mean of 2 experiments with triplicates for each treatment (± standard deviation).
Figure S10. Cell viability assay. a) U2-OS and, b) U-87 MG were incubated with the different concentrations of indicated inhibitors. After a 48 h incubation cells were fixed, and viability was measured by methylene blue assay.The data were expressed as a percentage of control; data represent the mean of 2 experiments with triplicates for each treatment (± SD). Statistical differences were evaluated by two -tailed Student’s t -test from two independent experiments.
Student’s t -test was non-significant except for samples indicated with *, P <0.05 and **, P <0.01. (c) Human osteoclasts were incubated with the different concentrations of indicated inhibitors. After a 48 h incubation cells were fixed, and viability was measured by methylene […]
(also on this page, place not known: t-test non -significant t-test 0 20 40 60 80 100 120 (0.5 µM)(5 µM)(1 µM)(5 µM)(1 µM) (0.5 µM) ODNGD38GD38GD38GD20GD20GD20 (0.5 µM) Cell viability (% of control) Concentration of compound) […]
(1 picture or pasted object on this page, not shown here)

Row | Compound | inhibition at 5 µM [1] [%] | osteoclast numbers on bone slices (TRAP) [2] | cell viability (% of control) vs control [3]
1 | CC(C)C[C@H](N[C@@H](c1ccc(-c2ccc(S(C)(=O)=O)cc2)cc1)C(F)(F)F)C(=O)NCC(=O)COC(=O)[C@@H]1CCCN1C(=O)[C@H](CC(C)C)NC(=O)OCC1c2ccccc2-c2ccccc21 [GD20] | 94 ± 1.57 | no significant alterations | no significant differences
2 | CC(C)C[C@H](N[C@@H](c1ccc(-c2ccc(S(C)(=O)=O)cc2)cc1)C(F)(F)F)C(=O)NCC(=O)COC(=O)[C@@H]1CCCN1C(=O)[C@H](CCC(N)=O)NC(=O)OCC1c2ccccc2-c2ccccc21 [GD38] | – | – | no significant differences
3 | CC(C)(F)C[C@H](N[C@@H](c1ccc(-c2ccc(S(C)(=O)=O)cc2)cc1)C(F)(F)F)C(=O)NC1(C#N)CC1 [ODN, odanacatib, reference compound] | 93 ± 1.45 | increase | no significant differences
